What was measured:
[1] = test system: Daudi lymphoma cell line; assay: In vitro antiproliferation assay, General Procedure 1 (WST-8); type: cell-based
Procedure: (§1) The ability of neoDegrader conjugates to inhibit cell growth was measured using in vitro anti-proliferation assay. […] Conjugates were diluted in complete cell growth medium using 4-fold serial dilutions and 100 µL was added per well. […] Viability of remaining cells was determined by colorimetric WST-8 assay (Dojindo Molecular Technologies, Inc., Rockville, MD, US). WST-8 was added to 10% of the final volume and plates were incubated at 37° C. in a humidified 5% CO2 incubator for 2-4 hours. Plates were analyzed by measuring the absorbance at 450 nm (A450) in a multi-well plate reader. Background A450 absorbance of wells with media and WST-8 only was subtracted from all values. The percent viability was calculated by dividing each treated sample value by the average value of wells with untreated cells. The percent viability value was plotted against the test sample concentration in a semi-log plot for each treatment. IC50 values were calculated automatically.

[2] = test system: HCC1954 cell line (Breast); assay: as above; type: cell-based; settings: Homo sapiens, conjugates DAR 8
Procedure: as §1

[3] = test system: NCI-N87 gastric cancer cell line; assay: as above; type: cell-based
Procedure: as §1

[4] = test system: Ramos (non-Hodgkins lymphoma) cell line; assay: as above; type: cell-based
Procedure: as §1

[5] = test system: JHUEM-3 cell line (Uterus); assay: as above; type: cell-based
Procedure: as §1

[6] = test system: SK-BR-3 breast cancer cell line; assay: as above; type: cell-based
Procedure: as §1

[7] = test system: BT-474 breast cancer cell line; assay: as above; type: cell-based; settings: Homo sapiens, BT-474, read-out: IC50, BT-474, conjugates DAR 8, comparators DAR not given
Procedure: as §1

[8] = test system: CFPAC-1 cell line (Pancreatic); assay: as above; type: cell-based; settings: Homo sapiens
Procedure: as §1

[9] = test system: NCI-H2030 cell line (Lung); assay: as above; type: cell-based; settings: Homo sapiens
Procedure: as §1

[10] = test system: EOL-1 cell line; assay: In vitro antiproliferation assay, General Procedure 2 (CCK-8); type: cell-based, human; settings: Homo sapiens, EOL1; Acute myeloid leukemia; read-out: IC50, EOL-1
Description: (§2) Cell Culture: Cell lines were obtained from the American Type Culture Collection (ATCC, Manassas, VA, USA) or Deutsche Sammlung von Mikroorganismen und Zellkulturen (DSMZ, Braunschweig, Germany) and maintained according to the culturing conditions specified by ATCC or DSMZ. Cells were thawed out and maintained in culture for at least two passages before proceeding with experimental conditions.
(§3) Cytotoxicity assays: For adherent cell lines, the cells were dissociated with enzyme-free PBS-based cell dissociation buffer (Gibco, USA) and plated on tissue culture treated 96-well flat bottom polystyrene plates (Costar, Corning, USA) at appropriate cell densities depending on doubling time of the cells. 18 hours after plating, cells were treated with test articles at appropriate concentrations starting at 100 nM and diluted in 4-fold serial dilutions. For suspension cell lines, the cells were seeded on the same day of treatment and cells were treated as described above. Adherent cells were treated for 5 days and suspension cells were treated for 3 days. Cell proliferation was assessed using the Cell Counting Kit-8 (CCK-8, Dojindo Laboratories, Japan) and measurements were obtained using the Promega GloMax Discover plate reader (Promega, USA). Data were analyzed using GraphPad Prism software (GraphPad Software, San Diego, CA). All data points were obtained from technical triplicates and the experiments were validated using three biological replicates.

[11] = test system: NB-4 cell line; assay: as above; type: cell-based; settings: Homo sapiens, Acute promyelocytic leukemia
Description: as §2, §3

[12] = test system: THP-1 cell line; assay: as above; type: cell-based; settings: Homo sapiens, AML
Description: as §2, §3

[13] = test system: RH30 cell line; assay: as above; type: cell-based; settings: Rhabdomyosarcoma
Description: as §2, §3

[14] = test system: HL-60 cell line; assay: as above; type: cell-based; settings: Homo sapiens, HL-60; AML; read-out: IC50, HL-60
Description: as §2, §3

[15] = test system: PL-21 cell line; assay: as above; type: cell-based; settings: Acute myeloid leukemia
Description: as §2, §3

[16] = test system: BT-474 cell line; assay: as above; type: cell-based; settings: Homo sapiens, Breast, read-out: IC50, BT474
Description: as §2, §3

[17] = test system: SK-BR-3 cell line; assay: as above; type: cell-based; settings: Homo sapiens, Breast, read-out: IC50, SKBR3
Description: as §2, §3

[18] = test system: OCI-M1 cell line; assay: as above; type: cell-based; settings: Acute myeloid leukemia
Description: as §2, §3

[19] = test system: ML-2 cell line; assay: as above; type: cell-based; settings: Homo sapiens, ML-2; Acute myelomonocytic leukemia; read-out: IC50, ML-2
Description: as §2, §3

[20] = test system: JHUEM3 cell line; assay: as above; type: cell-based; settings: Endometrial
Description: as §2, §3

[21] = test system: MV4-11 cell line; assay: as above; type: cell-based; settings: Homo sapiens, MV4-11; Biphenotypic B myelomonocytic leukemia; read-out: IC50, MV4-11
Description: as §2, §3

[22] = test system: KE39 cell line; assay: as above; type: cell-based; settings: Gastric
Description: as §2, §3

[23] = test system: SKOV3 cell line; assay: as above; type: cell-based; settings: Homo sapiens, SK-OV-3; Ovarian
Description: as §2, §3

[24] = test system: U251MG cell line; assay: as above; type: cell-based; settings: Homo sapiens, U-251; Brain
Description: as §2, §3

[25] = test system: OCI-AML4 cell line; assay: as above; type: cell-based; settings: Acute myeloid leukemia; read-out: IC50, OCI-AML4
Description: as §2, §3

[26] = test system: ASKA synovial sarcoma cell line; assay: as above; type: cell-based
Description: as §2, §3

[27] = test system: Molp8 cell line; assay: as above; type: cell-based; settings: Homo sapiens, MOLP-8; MM
Description: as §2, §3

[28] = test system: RPMI7951 cell line; assay: as above; type: cell-based; settings: Homo sapiens, RPMI-7951; Skin
Description: as §2, §3

IC50 ([1]; Homo sapiens, Daudi): > 100 nM
IC50 [2]: > 100 nM
IC50 ([3]; Homo sapiens, NCI-N87, Gastric, conjugates DAR 8): > 100 nM
IC50 ([4]; Homo sapiens, Ramos): > 100 nM
IC50 ([6]; Homo sapiens, SK-BR-3, Breast, conjugates DAR 8): 100 nM
IC50 [7]: 13 nM
IC50 [9]: > 100 nM
IC50 [12]: 350 nM
IC50 [14]: 12.3 nM
IC50 [16]: 13 nM
IC50 [17]: 100 nM
IC50 [18]: > 1000 nM
IC50 [21]: 2.72 nM
IC50 [23]: 114 nM
IC50 [24]: > 1000 nM
IC50 [25]: 22.4 nM
IC50 [26]: 71.2 nM
SMILES: CNCCOCCc1ccc(NC(=O)NCc2ccc3c(c2)CN(C2CCC(=O)NC2=O)C3=O)cc1Cl (centres unmarked) [Compound P1, 1-(3-chloro-4-[2-[2-(methylamino)ethoxy]ethyl]phenyl)-3-[[2-(2,6-dioxopiperidin-3-yl)-1-oxo-3H-isoindol-5-yl]methyl]urea]
antiproliferative activity compared, in words ([1]; Daudi cells, rituximab neoDegrader conjugates versus comparators, FIGS. 14 and 15): less active
anti-proliferative activity compared, in words ([3]; NCI-N87 cells, neoDegrader conjugates (DAR 8) versus comparators, FIGS. 16 and 17): significantly less active
antiproliferative activity compared, in words ([4]; Ramos cells, rituximab neoDegrader conjugates versus comparators, FIG. 13): less active
IC50 [5]: > 100 nM
anti-proliferative activity compared, in words ([6]; SK-BR-3 cells, neoDegrader conjugates (DAR 8) versus comparators, FIGS. 7 and 8): significantly less active
IC50 [8]: > 100 nM
IC50 [10]: 3.1 nM
IC50 [11]: 8.63 nM
IC50 [13]: 174 nM
IC50 [15]: 7.55 nM
IC50 [19]: 1.86 nM
IC50 [20]: > 1000 nM
IC50 [22]: > 1000 nM
IC50 [27]: 23.7 nM
IC50 [28]: 97.1 nM
